{"source": "paper PMC5298231", "about": "“The Malaria Parasite's Lactate Transporter PfFNT Is the Target of Antiplasmodial Compounds Identified in Whole Cell Phenotypic Screens” (PLoS Pathogens, 2017)", "key": {"[1]": {"tested_on": "PfCRT (from the chloroquine-resistant Dd2 strain)", "experiment": "[3H]chloroquine uptake by Xenopus oocytes expressing PfCRT", "format": "cell-based, Plasmodium falciparum", "details": "1 μM and 4 μM; pH 5.5", "from_the_text": "(PfCRT; from the chloroquine-resistant Dd2 strain) and on [^3H]hypoxanthine transport by oocytes expressing the P. falciparum equilibrative nucleoside/nucleobase transporter PfENT1 [27, 28].\nThe oocyte expression vectors containing PfFNT, PfENT1 and PfCRT were made previously. The Gly107Ser mutant form of PfFNT was generated through site-directed mutagenesis of the oocyte expression vector containing wild-type (3D7) PfFNT using primers 9 and 10 (S2 Table). Oocytes were harvested from adult female Xenopus laevis frogs and prepared as described previously. cRNA was made using the mMessage mMachine T7 transcription kit and the MEGAclear kit (Ambion) and microinjected into oocytes as outlined elsewhere. […] The uptake of radiolabelled substrates was measured 2–5 days post-injection at 27.5°C in ND96 buffer (containing 96 mM NaCl, 2 mM KCl, 1 mM MgCl2, 1.8 mM CaCl2, 10 mM MES and 10 mM Tris-base; pH-adjusted to the value specified in the relevant Figure legends). […] The oocytes were then transferred to separate wells of a 96-well plate, lysed with 10% SDS, and the radioactivity measured as described previously.\nThe data are averaged from four to five independent experiments (performed using oocytes from different frogs) and are shown + SEM. In B, the uptake of [^3H]hypoxanthine (0.36 μM) was measured over 30 min at pH 6.0. […]"}, "[2]": {"tested_on": "MMV007839-selected culture B (PfFNT Gly107Ser)", "experiment": "Parasite proliferation assay, MMV007839-selected culture B", "format": "cell-based, Plasmodium falciparum", "details": "MMV007839-selected culture B; mean ± SEM; read-out: IC50 value, growth inhibition", "procedure": "Parasite proliferation was measured in 96-well plates using a fluorescent DNA-intercalating dye. The assays were initiated with erythrocytes infected with predominantly ring-stage parasites, and the starting parasitaemia was 0.5–1% and the haematocrit was 1%.\nFor MMV007839-selected culture A, the drug concentration was increased by 5 nM increments on Day 18, Day 21, and every two days thereafter. […] The cultures were provided with fresh medium and blood and diluted to reduce the parasitaemia as needed."}, "[3]": {"details": "ref [36]; cited from earlier work"}, "[4]": {"tested_on": "erythrocytes infected with 3D7 trophozoites (extracellular medium)", "experiment": "LC-MS metabolite profiling, extracellular medium of parasitised erythrocyte suspensions", "details": "6 μM"}}, "data": [{"smiles": "COc1ccc2c(c1)OC(O)(C(F)(F)C(F)(F)F)CC2=O", "note": "(centres unmarked) [MMV007839]", "values": [{"measurement": "Effect on transport of [3H]chloroquine via PfCRT", "setting": "[1]", "result": "not inhibiting"}, {"measurement": "IC50", "setting": "[2]", "result": "37.5 ± 2.7", "unit": "µM"}, {"measurement": "Toxicity in Malaria Box toxicity testing", "setting": "[3]", "result": "display toxicity in some assays"}, {"measurement": "Extracellular lactate level, treated vs untreated", "setting": "[4]; not statistically significant", "result": "decreased"}, {"measurement": "Extracellular pyruvate level, treated vs untreated", "setting": "[4]; not statistically significant", "result": "increased"}, {"measurement": "Extracellular α-ketoglutarate level, treated vs untreated", "setting": "[4]; not statistically significant", "result": "decreased"}, {"measurement": "Extracellular 3-phosphoglycerate level, treated vs untreated", "setting": "[4]; statistically significant", "result": "increased"}, {"measurement": "Extracellular phosphoenolpyruvate level, treated vs untreated", "setting": "[4]; statistically significant", "result": "increased"}]}]}
